Measurements from PubChem BioAssay (NCI).
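Dose response: 5 concentrations. Exposure: 48 h. Format: 96-well plates. Endpoint: linear interpolation; highest concentration if not reached. TGI: concentration producing complete growth inhibition.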

Tests used:
Experiment in all cases: DTP human tumour cell line panel, 48 h
786-0 renal = system: 786-0 renal
A498 renal = system: A498 renal
A549 NSCLC = system: A549 NSCLC
ACHN renal = system: ACHN renal
CAKI-1 renal = system: CAKI-1 renal
CCRF-CEM leukemia = system: CCRF-CEM leukemia
COLO 205 colon = system: COLO 205 colon
DU-145 prostate = system: DU-145 prostate
EKVX NSCLC = system: EKVX NSCLC
HCC-2998 colon = system: HCC-2998 colon
HCT-116 colon = system: HCT-116 colon
HCT-15 colon = system: HCT-15 colon
HL-60(TB) leukemia = system: HL-60(TB) leukemia
HOP-62 NSCLC = system: HOP-62 NSCLC
HOP-92 NSCLC = system: HOP-92 NSCLC
HS 578T breast = system: HS 578T breast
HT29 colon = system: HT29 colon
IGROV1 ovarian = system: IGROV1 ovarian
K-562 leukemia = system: K-562 leukemia
KM12 colon = system: KM12 colon
LOX IMVI melanoma = system: LOX IMVI melanoma
M14 melanoma = system: M14 melanoma
MALME-3M melanoma = system: MALME-3M melanoma
MCF7 breast = system: MCF7 breast
MDA-MB-231 breast = system: MDA-MB-231 breast
MDA-MB-435 = system: MDA-MB-435
MDA-N = system: MDA-N
MOLT-4 leukemia = system: MOLT-4 leukemia
NCI-H226 lung = system: NCI-H226 lung
NCI-H23 lung = system: NCI-H23 lung
NCI-H460 lung = system: NCI-H460 lung
NCI-H522 lung = system: NCI-H522 lung
NCI/ADR-RES ovarian = system: NCI/ADR-RES ovarian
OVCAR-3 ovarian = system: OVCAR-3 ovarian
OVCAR-4 ovarian = system: OVCAR-4 ovarian
OVCAR-5 ovarian = system: OVCAR-5 ovarian
OVCAR-8 ovarian = system: OVCAR-8 ovarian
PC-3 prostate = system: PC-3 prostate
RXF 393 renal = system: RXF 393 renal
SF-268 CNS = system: SF-268 CNS
SF-295 CNS = system: SF-295 CNS
SF-539 CNS = system: SF-539 CNS
SK-MEL-2 melanoma = system: SK-MEL-2 melanoma
SK-MEL-28 melanoma = system: SK-MEL-28 melanoma
SK-MEL-5 melanoma = system: SK-MEL-5 melanoma
SK-OV-3 ovarian = system: SK-OV-3 ovarian
SN12C renal = system: SN12C renal
SNB-19 CNS = system: SNB-19 CNS
SNB-75 CNS = system: SNB-75 CNS
SR leukemia = system: SR leukemia
SW-620 colon = system: SW-620 colon
T-47D breast = system: T-47D breast
TK-10 renal = system: TK-10 renal
U251 CNS = system: U251 CNS
UACC-257 melanoma = system: UACC-257 melanoma
UACC-62 melanoma = system: UACC-62 melanoma
UO-31 renal = system: UO-31 renal
BT-549 breast = system: BT-549 breast
RPMI-8226 leukemia = system: RPMI-8226 leukemia

`Oc1[nH]c2ccccc2c1N=NC(=S)Nc1ccccc1Cl` was tested, and the TGI (786-0 renal) was 20.8 µM, the TGI (A498 renal) was 35.4 µM and the TGI (A549 NSCLC) was 23.8 µM. For the same compound, the TGI (ACHN renal) was 17.2 µM, the TGI (CAKI-1 renal) was 8.78 µM and the TGI (CCRF-CEM leukemia) was 49.9 µM. The TGI (COLO 205 colon) was greater than 100 µM, the TGI (DU-145 prostate) was 58.5 µM and the TGI (EKVX NSCLC) was 77.9 µM. It also gave a TGI (HCC-2998 colon) greater than 100 µM, a TGI (HCT-116 colon) of 11.8 µM and a TGI (HCT-15 colon) greater than 100 µM. For the same compound, the TGI (HL-60(TB) leukemia) was 18.7 µM, the TGI (HOP-62 NSCLC) was 37.9 µM and the TGI (HOP-92 NSCLC) was 56.2 µM. For the same compound, the TGI (HS 578T breast) was 56.1 µM, the TGI (HT29 colon) was 21.9 µM and the TGI (IGROV1 ovarian) was 29.8 µM. It also gave a TGI (K-562 leukemia) of 81.4 µM, a TGI (KM12 colon) of 14.9 µM and a TGI (LOX IMVI melanoma) of 27.4 µM. The TGI (M14 melanoma) was 14.9 µM, the TGI (MALME-3M melanoma) was 21.8 µM and the TGI (MCF7 breast) was 33.4 µM. It also gave a TGI (MDA-MB-231 breast) of 32 µM, a TGI (MDA-MB-435) of 57.5 µM and a TGI (MDA-N) greater than 100 µM. The TGI (MOLT-4 leukemia) was 4.95 µM, the TGI (NCI-H226 lung) was 53 µM and the TGI (NCI-H23 lung) was 33.5 µM. The TGI (NCI-H460 lung) was 52.2 µM, the TGI (NCI-H522 lung) was greater than 100 µM and the TGI (NCI/ADR-RES ovarian) was 3.48 µM. For the same compound, the TGI (OVCAR-3 ovarian) was 37.6 µM, the TGI (OVCAR-4 ovarian) was 63.7 µM and the TGI (OVCAR-5 ovarian) was greater than 100 µM. The TGI (OVCAR-8 ovarian) was 17.9 µM, the TGI (PC-3 prostate) was greater than 100 µM and the TGI (RXF 393 renal) was 31.4 µM. For the same compound, the TGI (SF-268 CNS) was 56.9 µM, the TGI (SF-295 CNS) was 20.9 µM and the TGI (SF-539 CNS) was 7.86 µM. The TGI (SK-MEL-2 melanoma) was 64.8 µM, the TGI (SK-MEL-28 melanoma) was 75.6 µM and the TGI (SK-MEL-5 melanoma) was 15.8 µM. It also gave a TGI (SK-OV-3 ovarian) of 35.5 µM, a TGI (SN12C renal) greater than 100 µM and a TGI (SNB-19 CNS) greater than 100 µM. The TGI (SNB-75 CNS) was 16.1 µM, the TGI (SR leukemia) was 1.16 µM and the TGI (SW-620 colon) was 40.3 µM. It also gave a TGI (T-47D breast) greater than 100 µM, a TGI (TK-10 renal) of 10.3 µM and a TGI (U251 CNS) of 55 µM. For the same compound, the TGI (UACC-257 melanoma) was 15.5 µM, the TGI (UACC-62 melanoma) was 20.6 µM and the TGI (UO-31 renal) was 81.6 µM.
Compound `COc1ccc2c(c1)c1c(n2CCN(C)C)-c2ccccc2CC1` has a TGI (786-0 renal) of 30.4 µM, a TGI (A549 NSCLC) of 29.5 µM and a TGI (ACHN renal) of 30 µM. The TGI (BT-549 breast) was 30.7 µM, the TGI (CAKI-1 renal) was 27.6 µM and the TGI (CCRF-CEM leukemia) was 38.6 µM. The TGI (COLO 205 colon) was 27.2 µM, the TGI (DU-145 prostate) was 29.4 µM and the TGI (EKVX NSCLC) was 24.4 µM. The TGI (HCC-2998 colon) was 32.2 µM, the TGI (HCT-116 colon) was 28.7 µM and the TGI (HCT-15 colon) was 26.8 µM. The TGI (HOP-62 NSCLC) was 30.5 µM, the TGI (HOP-92 NSCLC) was 31 µM and the TGI (HS 578T breast) was 34.2 µM. The TGI (HT29 colon) was 20.3 µM, the TGI (IGROV1 ovarian) was 27 µM and the TGI (K-562 leukemia) was 29.8 µM. For the same compound, the TGI (KM12 colon) was 28 µM, the TGI (LOX IMVI melanoma) was 33.5 µM and the TGI (M14 melanoma) was 29.3 µM. The TGI (MALME-3M melanoma) was 35.5 µM, the TGI (MCF7 breast) was 35.1 µM and the TGI (MDA-MB-231 breast) was 27.2 µM. The TGI (MDA-MB-435) was 36.5 µM, the TGI (MDA-N) was 30.5 µM and the TGI (MOLT-4 leukemia) was 35.8 µM. For the same compound, the TGI (NCI-H226 lung) was 24.6 µM, the TGI (NCI-H23 lung) was 31.9 µM and the TGI (NCI-H460 lung) was 30.8 µM. It also gave a TGI (NCI-H522 lung) of 32.9 µM, a TGI (NCI/ADR-RES ovarian) of 31.5 µM and a TGI (OVCAR-3 ovarian) of 30.9 µM. For the same compound, the TGI (OVCAR-4 ovarian) was 31.4 µM, the TGI (OVCAR-5 ovarian) was 32.2 µM and the TGI (OVCAR-8 ovarian) was 31.1 µM. For the same compound, the TGI (PC-3 prostate) was 25.2 µM, the TGI (RPMI-8226 leukemia) was 45 µM and the TGI (SF-268 CNS) was 32.7 µM. It also gave a TGI (SF-295 CNS) of 30.6 µM, a TGI (SF-539 CNS) of 27 µM and a TGI (SK-MEL-2 melanoma) of 30.3 µM. It also gave a TGI (SK-MEL-28 melanoma) of 29.1 µM, a TGI (SK-MEL-5 melanoma) of 32.7 µM and a TGI (SK-OV-3 ovarian) of 34.4 µM. It also gave a TGI (SN12C renal) of 28.1 µM, a TGI (SNB-19 CNS) of 35.5 µM and a TGI (SNB-75 CNS) of 26.6 µM. The TGI (SW-620 colon) was 34.2 µM, the TGI (T-47D breast) was 31.5 µM and the TGI (TK-10 renal) was 29.8 µM. The TGI (U251 CNS) was 27.2 µM, the TGI (UACC-257 melanoma) was 30.3 µM and the TGI (UACC-62 melanoma) was 28 µM. For the same compound, the TGI (UO-31 renal) was 26.4 µM.
